Test results published in patent US20100036122A1, “CLEAVAGE AGENT SELECTIVELY ACTING ON SOLUBLE ASSEMBLY OF AMYLOIDOGENIC PEPTIDE OR PROTEIN” (priority 2006, published 2010).
“Also recorded” adds a separate entry of the source.

Legend:
Format in all cases: biochemical
[1] = test system: horse heart myoglobin, bovine serum γ-globulin, bovine serum albumin, human serum albumin, egg white lysozyme, egg white ovalbumin, bovine pancreas insulin; assay: Reaction with control proteins (not amyloidogenic); conditions: each protein 2-7 μM, cleavage agent 5.0 μM, pH 7.50, 37° C., 36 hours
Aβ42 = Aβ42 (Homo sapiens, UniProt P05067); assay: Cleavage of oligomers of Aβ42 by cleavage agent (MALDI-TOF MS, cleavage yield); conditions: for cleavage of Aβ42 (MALDI-TOF mass spectrum): cleavage agent 0.50-1.0 μM, pH 7.50, 36 hours
Chain of Aβ42 (P05067 672-713 limits assumed): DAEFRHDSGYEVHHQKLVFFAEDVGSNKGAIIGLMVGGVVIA
Method: (§1) The activity of each cleavage agent was tested at 37° C. and pH 7.50 (0.050 M phosphoric acid) in Eppendorf tubes unless indicated otherwise in the Examples.
(§2) To generate the monomeric form of Aβ40 or Aβ42 in the early reaction stage, Aβ40 or Aβ42 was treated with NaOH prior to exposure to the pH 7.50 reaction medium (Fezoui, Y.; Hartley, D. M.; Harper, J. D.; Khurana, R.; Walsh, D. M.; Condron, M. M.; Selkoe, D. J.; Lansbury, P. T. Jr.; Fink, A. L.; Teplow, D. B. Amyloid 2000, 7, 166-178). The results for measurement of the fraction of Aβ40 (◯) or Aβ42 ([…]) (initial concentration: 4.0 μM) passing the membrane with cut-off MW of 10000 after incubation at pH 7.50 and 37° C. for various periods of self-assembly are illustrated in FIG. 5. According to the results, most (>80%) of Aβ42 (MW 4514) passes the filter immediately after exposure to the pH 7.50 medium. During the filtration through the membrane which takes about 10 minutes, large oligomers which cannot pass the membrane may have been generated. Therefore, it appears that most of the Aβ42 passed the membrane.
(§3) Unless specifically described in the Examples, cleavage reaction was initiated by adding Aβ40 or Aβ42 to the solution containing the cleavage agent, and the cleavage yield was estimated through the following process.
(§4) A product solution formed by the cleavage reaction was passed through the membrane with a cut-off MW of 10000 to remove aggregates of Aβ40 or Aβ42. Thereafter, the cleavage products were separated by HPLC, and the total amount of the cleavage products was estimated. The cleavage product was degraded to amino acids by alkaline hydrolysis, and then, the total amount of amino acids was estimated with fluorescamine to determine the total amount of the cleavage product. The cleavage yield was calculated by comparing the amount of the cleavage product with the initially added amount of the Aβ40 or Aβ42.
(§5) The cleavage yield measured by incubating Aβ40 or Aβ42 (4.0 μM) with various concentrations of cleavage agent A at pH 7.50 and 37° C. for 36 hours is illustrated in FIG. 8. The cleavage yields of Aβ40 or Aβ42 in the Examples are the mean value measured by using 4˜6 different reaction mixtures. The relative standard deviation (% RSD) of each cleavage yield is 5-15%.

α-synuclein (Syn) = target: T1, α-synuclein (Syn) (Homo sapiens, UniProt P37840, M5L); assay: Cleavage of oligomer of α-synuclein by cleavage agent (cleavage yield); conditions: Syn 70 μM, pH 7.50, 37° C.; for cleavage yields of Syn: various concentrations of cleavage agent, 3 days
T1 construct: α-synuclein (Syn) is a protein consisting of 140 amino acids; histidine tag (LEHHHHHH) (C); made in house
Method: as §1
In the Examples, the slightly modified derivatives of α-synuclein (Syn) were used as a substrate to obtain α-synuclein (Syn) by gene recombination. To facilitate purification by the nickel chelate method, histidine tag (LEHHHHHH) was adhered to C-terminus. To avoid interference in the transcription, leucine instead of methionine was incorporated as the 5th amino acid residue.
Unless the context clearly indicates otherwise, Syn cleavage was initiated by adding Syn to the solution of the cleavage agent. The cleavage yield was calculated according to the following method.
A product solution formed by the cleavage reaction was passed through the membrane with the cut-off MW of 10000 to remove Syn and its assemblies. Then, the cleavage products were separated by HPLC, and the total amount of the cleavage products was estimated. The cleavage product was degraded to amino acids through alkaline hydrolysis. The total amount of the amino acids was then estimated with fluorescamine to quantify the total amount of the cleavage product. The cleavage yield was calculated by comparing the amount of the cleavage product with the initially added amount of Syn.
The cleavage yields measured by incubating Syn (70 μM) with various concentrations of cleavage agent A at pH 7.50 and 37° C. for 3 days are illustrated in FIG. 15. The cleavage yields in the Examples are the mean value measured by using 4˜6 different reaction solutions. Since the MW of Syn used in the Examples is about 15000, some of the protein fragments formed by the cleavage of Syn might have been too large to pass through the membrane with cut-off MW of 10000.

Aβ40 = Aβ40 (Homo sapiens, UniProt P05067); assay: Cleavage of oligomers of Aβ40 by cleavage agent (MALDI-TOF MS, cleavage yield); conditions: for cleavage of Aβ40 (MALDI-TOF mass spectrum): pH 7.50, 36 hours
Chain of Aβ40 (P05067 672-711 limits assumed): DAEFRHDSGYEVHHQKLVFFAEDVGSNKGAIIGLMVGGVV
Method: as §1, §2, §3, §4, §5

[2] = target: T2, amylin (Am; human islet amyloid polypeptide) (Homo sapiens, UniProt P10997); assay: Cleavage of oligomers of amylin by cleavage agent (MALDI-TOF MS, cleavage yield); conditions: for cleavage of Am (MALDI-TOF mass spectrum of HPLC-purified products) / cleavage products of Am (MALDI-TOF MS): cleavage agent 0.38-7.1 μM (figure legends), pH 7.50, 36 hours
T2 construct: Am is a cyclic oligopeptide consisting of 37 amino acid residues
T2 sequence (P10997 34-70 limits assumed): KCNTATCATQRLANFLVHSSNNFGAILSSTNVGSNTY
Method: as §1
MALDI-TOF mass spectrum of the products purified with HPLC after incubating Am (4.0 μM) with cleavage agent A is illustrated in FIG. 12. In this Example and hereafter, MALDI-TOF mass spectra of cleavage products for Am were taken after purification with HPLC by the method described below.
Unless specifically described in the Examples, cleavage reaction of Am was initiated by adding Am to the solution containing the cleavage agent, and the cleavage yield was estimated through the following process. The product solution obtained from the cleavage reaction was passed through the membrane (cut-off MW=10000) to remove Am aggregates, and then the cleavage product was separated by HPLC. The total amount of the cleavage product was quantified. The cleavage product was converted to amino acids by alkaline hydrolysis, and the total amount of amino acids was estimated by using fluorescamine to determine the amount of the cleavage product. The cleavage yield was calculated by comparing the amount of cleavage product with that of the initial amount of Am.
The cleavage yields measured after reacting Am (4.0 μM) with various concentrations of cleavage agent A at 37° C. and pH 7.50 for 36 hours are illustrated in FIG. 13. The cleavage yields of Am in the Examples are the mean value measured by using 4[…]6 different reaction mixtures. The relative standard deviation of each cleavage yield is 5-15%.

scrambled Aβ42 = assay: Reaction with control peptides: scrambled Aβ42; conditions: scrambled Aβ42 4.0 μM, cleavage agent 3.0 μM, pH 7.50, 37° C., 36 hours
Method: The following control experiment was performed on cleavage agent A. The peptides or proteins used in the control experiment are not amyloidogenic. […] Two kinds of scrambled Aβ42, having the same 42 amino acids as Aβ42 in a scrambled sequence ([…], […]) (4.0 μM), were not cleaved by incubation with cleavage agent A (3.0 μM) at pH 7.50 and 37° C. for 36 hours.

[3] = Aβ42 4.0 μM, cleavage agent 3.0 μM, 36 hours, 37° C., pH 7.50
[4] = Aβ42 4.0 μM, pH 7.50, 37° C., 36 hours
[5] = concluded from preincubation and filtration experiments
[6] = Aβ40 4.0 μM, cleavage agent 3.0 μM, 37° C.
[7] = Aβ40 4.0 μM, cleavage agent 3.0 μM, 36 hours, 37° C., pH 7.50
[8] = Am 4.0 μM, cleavage agent 1.0 μM, 36 hours, 37° C., pH 7.50

Compound	cleavage of non-amyloidogenic control proteins [1]	cleavage of Aβ42 (MALDI-TOF mass spectrum) (Aβ42; Aβ42 4.0 μM, 37° C.)	concentration of cleavage agent at which cleavage reaction was detected (Aβ42; [4]) [nM]	plateau value of the yield for cleavage of Aβ42 at high concentration of the cleavage agent (Aβ42; [4])	cleavage yields of Syn (α-synuclein (Syn))	cleavage of Aβ40 (MALDI-TOF mass spectrum) (Aβ40; [6])	cleavage of Am (MALDI-TOF mass spectrum of HPLC-purified products) ([2]; Am 4.0 μM, 37° C.)	cleavage products of Am (MALDI-TOF MS) ([2]; Am 4.0 μM, 37° C.)	cleavage of two kinds of scrambled Aβ42 (control) (scrambled Aβ42)	also measured
CCCCNc1nc(NCCCN2CCNCCNCCNCC2)nc(NCc2ccc(-c3nc4ccccc4o3)cc2)n1.O.O.[Co+3] [cleavage agent A]	cleavage reaction was not detected	cleaved	100	about 30%	fairly large	cleaved	cleaved	Am20-37 and Am19-37	not cleaved	cleavage of Aβ42 after preincubation of Aβ42 for 24 hours (Aβ42; [3]): little cleavage was observed; cleavage yield after preincubation of Aβ42 for 3-6 hours compared with no preincubation (Aβ42; [3]): not much smaller; assembly species of Aβ42 cleaved (selectivity) (Aβ42; [5]): the oligomer is cleaved by the cleavage agent A and not the Aβ42 monomer, protofibril, or fibril; cleavage of Aβ40 after preincubation of Aβ40 for 24 hours (Aβ40; [7]): considerable peptide cleavage; effect of preincubation of Aβ40 for periods longer than 24 hours on cleavage yield (Aβ40; [7]): reduces the cleavage yield; yield for cleavage of Aβ40 after preincubation for 3-18 hours (Aβ40; [7]): does not decrease considerably; assembly species of Aβ40 cleaved (selectivity) (Aβ40; [5]): protofibrils or fibrils of Aβ40 are not cleaved
CC(Nc1nc(NCc2ccc(Cl)cc2)nc(OCCN(C)c2ccc(-c3nc4ccccc4s3)cc2)n1)C(=O)NCCCN1CCNCCNCCNCC1.O.O.[Co+3] (centres unmarked) [cleavage agent B]	the same as those obtained in Example 1	cleaved	30 to 50	~17%	fairly large	cleaved	cleaved	Am20-37, Am19-37 and Am17-37	the same as those obtained in Example 1	plateau value of the yield for cleavage of Aβ40 at high concentration of the cleavage agent (Aβ40; Aβ40 4.0 μM, pH 7.50, 37° C., 36 hours): about 12%; cleavage yield against reaction time ([2]; Am 4.0 μM, cleavage agent 1.0 μM, 37° C., pH 7.50): does not increase even if the reaction period is increase beyond 36 hours; amounts of cleavage products after preincubation of Am for 6 hours compared with no preincubation [2, 8]: not much smaller; cleavage of Am after preincubation of Am for 36 hours or longer [2, 8]: little cleavage reaction occurred; assembly species of Am cleaved (selectivity) [2, 5]: oligomers of Am instead of the monomer, protofibrils, and fibrils of Am are cleaved
Cc1ccccc1CNc1nc(NCCC(=O)NCCCN2CCNCCNCCNCC2)nc(OCCN(C)c2ccc(-c3nc4ccccc4s3)cc2)n1.O.O.[Co+3] [cleavage agent D]	the same as those obtained in Example 1	cleaved	50 to 100	about 12%			cleaved	Am20-37 and Am19-37	the same as those obtained in Example 1	cleavage of Aβ40 (MALDI-TOF MS data) (Aβ40; Aβ40 4.0 μM, cleavage agent 0.1-10 μM, pH 7.50, 37° C., 36 hours): did not reveal any evidence of cleavage
CCCCNc1nc(NCCCN2CCNCCNCCNCC2)nc(OCCN(C)c2ccc(-c3nc4ccccc4s3)cc2)n1.O.O.[Co+3] [cleavage agent E]	the same as those obtained in Example 1						cleaved	Am17-37, Am16-37 and Am13-37	the same as those obtained in Example 1	
CC(C)CC(Nc1nc(OCCN(C)c2ccc(-c3nc4ccccc4s3)cc2)nc(N2CCCCC2)n1)C(=O)NCCCN1CCNCCNCCNCC1.O.O.[Co+3] (centres unmarked) [cleavage agent F]	the same as those obtained in Example 1						cleaved	Am19-37 and Am17-37; also recorded: Am20-37, Am17-37 and Am14-37	the same as those obtained in Example 1	
Co^III complex of cyclen [reference compound]										cleavage of Aβ42 by complex lacking the recognition site (Aβ42; complex 20 μM, Aβ42 4.0 μM, pH 7.50, 37° C., 36 hours): No peptide cleavage was observed; cleavage of Syn by complex lacking the recognition site (α-synuclein (Syn); complex 20 μM, 36 hours): No peptide cleavage was observed; cleavage of Aβ40 by complex lacking the recognition site (Aβ40; complex 20 μM, Aβ40 4.0 μM, pH 7.50, 37° C., 36 hours): No peptide cleavage was observed; cleavage of Am by complex lacking the recognition site ([2]; complex 20 μM, Am 4.0 μM, pH 7.50, 37° C., 36 hours): No peptide cleavage was observed
